{
  "source": "patent US20080235828A1",
  "about": "(University of Manitoba, priority 2004, published 2008)",
  "key": {"FCA protein [1]": {"target": "T1, FCA protein (Arabidopsis thaliana, UniProt O04425)", "T1 sequence (O04425 1-747 isoform O04425-1)": "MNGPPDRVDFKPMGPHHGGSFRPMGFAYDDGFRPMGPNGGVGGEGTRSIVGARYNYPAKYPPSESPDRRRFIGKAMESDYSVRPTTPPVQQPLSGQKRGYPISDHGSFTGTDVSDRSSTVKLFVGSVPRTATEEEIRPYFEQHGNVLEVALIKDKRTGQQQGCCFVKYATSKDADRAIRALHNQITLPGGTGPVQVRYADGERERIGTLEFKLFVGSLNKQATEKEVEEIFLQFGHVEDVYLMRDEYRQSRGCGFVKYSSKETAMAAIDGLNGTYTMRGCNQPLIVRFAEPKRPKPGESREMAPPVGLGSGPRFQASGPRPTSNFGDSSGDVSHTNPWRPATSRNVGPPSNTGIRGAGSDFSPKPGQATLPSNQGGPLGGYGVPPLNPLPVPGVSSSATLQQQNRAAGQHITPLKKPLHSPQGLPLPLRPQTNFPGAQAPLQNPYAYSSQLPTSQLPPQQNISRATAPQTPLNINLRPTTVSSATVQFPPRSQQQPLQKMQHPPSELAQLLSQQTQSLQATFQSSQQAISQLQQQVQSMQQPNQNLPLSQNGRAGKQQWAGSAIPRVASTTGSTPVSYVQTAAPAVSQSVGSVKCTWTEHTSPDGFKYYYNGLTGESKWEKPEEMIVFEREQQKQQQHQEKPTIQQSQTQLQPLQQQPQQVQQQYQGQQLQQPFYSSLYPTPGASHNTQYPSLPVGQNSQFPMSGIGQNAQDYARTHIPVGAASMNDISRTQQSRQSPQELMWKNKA", "assay": "ABA binding assay with purified recombinant FCA", "parameters": "Kd; other: analog added in higher concentrations than 3H+-ABA (20-5000 nM); other: Scatchard analysis, r^2=0.88; other: in presence of 5 μM unlabelled (+)-ABA; pH range of maximum; fused on or other part: GST fused on for purification", "experimental": "(§1) […] The mixture was then rapidly filtered through a nitrocellulose membrane, washed with 0.5× binding buffer, air dried and counted in a scintillation counter (Wallac 1414 WinSpectral v1.40). Heat denatured FCA protein was used to used determine the protein nature of the FCA and BSA was used as a control. All binding studies were carried out using three different GST affinity chromatography protein purifications with triplicate assays for each purification. […] Specific binding was calculated by taking the difference for assays with only ^3H^+-ABA (total binding) and assays that also contained 5 μM (±)-ABA added at the same time as ^3H^+-ABA (non-specific binding). Binding was represented as the number of moles of ^3H^+-ABA per mole of FCA protein."}, "FCA-WF protein": {"target": "T2, FCA-WF protein (Arabidopsis thaliana, UniProt O04425, W619F)", "T2 sequence (O04425 1-747 W619F)": "T1 sequence (O04425 1-747 isoform O04425-1) with W619F", "assay": "ABA binding assay with FCA-WF (mutated WW domain)", "conditions": "mutation in the second W of WW domain", "experimental": "The GST:FCA-WW-FY interaction mixture was incubated for 90 minutes before 1 μM ^3H^+-ABA was added and the mixture pelletted, washed, and the dual activity for [^35S]-met-FY and ^3H^+-ABA were counted as described above.\nSimilarly, FCA-WF protein was used and binding assays were carried out as above. […] The FCA ^3H^+-ABA binding activity in the absence of FY reached approximately 50% saturation at 15 minutes and approximately 95% saturation at 45 minutes. Each data point represents triplicate assays and error bars represent standard deviation."}, "FCA protein [2]": {"target": "T1, FCA protein", "assay": "ABA binding assay with purified recombinant FCA", "parameters": "other: in the absence of FY, at 15 min; other: in the absence of FY, at 45 min; fused on or other part: GST fused on", "conditions": "in the absence of FY", "experimental": "as §1"}},
  "note": "Residue numbers refer to the chain shown, from its start.",
  "data": [
    {"substance": "abscisic acid [ABA]", "values": [
      {"measurement": "binding corresponding to 100% binding activity", "setting": "FCA protein [1]; 50 nM 3H-(+)-ABA, FIG. 16", "result": "approximately 0.52 mol ABA mol^−1 protein"},
      {"measurement": "maximum binding", "setting": "FCA protein [1]; Scatchard analysis, r^2=0.88", "result": 0.72, "unit": "mol mol^−1 protein"},
      {"measurement": "ratio of ABA bound to FCA", "setting": "FCA protein [1]; Scatchard plot", "result": "approximately 0.72 mol ABA mol^−1 protein"},
      {"measurement": "non-specific binding", "setting": "FCA protein [1]; in presence of 5 μM unlabelled (+)-ABA", "result": "less than 11 % of the total binding"},
      {"measurement": "3H+-ABA binding ratio relative to non-mutated FCA-WW protein", "setting": "FCA-WF protein", "result": "virtually a similar ratio"},
      {"measurement": "saturation of FCA 3H-(+)-ABA binding activity", "setting": "FCA protein [2]; at 15 min", "result": "approximately 50%"},
      {"measurement": "saturation of FCA 3H-(+)-ABA binding activity", "setting": "FCA protein [2]; at 45 min", "result": "approximately 95%"}
    ]}
  ]
}
